The values that follow come from patent US4755610A, “Hapalindoles” (priority 1986, dated 1988).

What all share (type): cell-based
The test system of test [1] is Trichophyton mentagrophytes. Description: In vitro antifungal activity, standard disc-plate assay. As to conditions: disc-plate assay, read-out: MIC.
The subject of test [2] is Staphylococcus aureus V41. The test is described as follows: In vitro antibacterial activity, standard agar-dilution assay. As to conditions: Staphylococcus aureus V41; agar dilution; read-out: MIC. (In general: Agar dilution tests growth on a series of plates holding different concentrations.)
Test [3] concerns Staphylococcus epidermidis EPI1. The test is described as above. As to conditions: Staphylococcus epidermidis EPI1; agar dilution; read-out: MIC.
A further test concerns Candida albicans. The test is described as follows: In vitro antifungal activity, standard disc-plate assay. Particulars: disc-plate assay, read-out: MIC.
For test [4], the system named is Streptococcus sp group D 2041. Description: In vitro antibacterial activity, standard agar-dilution assay. Particulars: GROUPD2041; Streptococcus sp group D 2041; agar dilution; read-out: MIC.
The next test relates to Escherichia coli TEM. Described as above.
The test system of test [5] is Staphylococcus aureus X400. The test is described as follows: microbe, parasite or virus in culture.
The test system of a further test is Shigella sonnei N9. The test is described as follows: In vitro antibacterial activity, standard agar-dilution assay. As to conditions: Shigella sonnei N9; agar dilution; read-out: MIC.
Test [6] deals with Haemophilus influenzae 76. Described as above. Particulars: Haemophilus influenzae 76; agar dilution; read-out: MIC.
In a further test the test system is Salmonella sp. X514. The description is as above. Particulars: Salmonella sp. X514; agar dilution; read-out: MIC.
In test [7] the test system is Staphylococcus aureus X1.1. Described as above. As to conditions: Staphylococcus aureus X1.1; agar dilution; read-out: MIC.
In test [8] the test system is Staphylococcus aureus S13E. Description: microbe, parasite or virus in culture.
The subject of test [9] is Staphylococcus epidermidis 222. The test is described as follows: In vitro antibacterial activity, standard agar-dilution assay. Particulars: Staphylococcus epidermidis 222; agar dilution; read-out: MIC.
In test [10] the test system is Klebsiella pneumoniae X68. The test is described as above. Particulars: Klebsiella pneumoniae X68; agar dilution; read-out: MIC.
The subject of another test is Proteus morganii PR15. The description is as above. Particulars: Morganella morganii; Proteus morganii PR15; agar dilution; read-out: MIC.
The test system of test [11] is Streptococcus faecium ATCC 9790. The description is as above. Particulars: Enterococcus faecium, ATCC9790; Streptococcus faecium ATCC 9790; agar dilution; read-out: MIC.
Test [12] concerns Klebsiella pneumoniae KAE. The test is described as above. As to conditions: Klebsiella pneumoniae KAE; agar dilution; read-out: MIC.
For a further test, the system named is Escherichia coli N10. Described as above. Particulars: Escherichia coli N10; agar dilution; read-out: MIC.
A further test relates to Escherichia coli EC14. The description is as above. Particulars: Escherichia coli EC14; agar dilution; read-out: MIC.
For test [13], the system named is Acinetobacter calcoaceticus AC12. Described as above. Particulars: Acinetobacter calcoaceticus AC12; agar dilution; read-out: MIC.
For test [14], the system named is Streptococcus pyogenes C203. The test is described as above. Particulars: Streptococcus pyogenes C203; agar dilution; read-out: MIC.
The subject of test [15] is Streptococcus pneumoniae Park 1. Described as above. As to conditions: PARK1; Streptococcus pneumoniae Park 1; agar dilution; read-out: MIC.
Test [16] has as its system Klebsiella pneumoniae X26. Described as above. Particulars: Klebsiella pneumoniae X26; agar dilution; read-out: MIC.
The test system of test [17] is Haemophilus influenzae C.L. Described as above. As to conditions: Haemophilus influenzae C.L.; agar dilution; read-out: MIC.

In brackets after ≈: the same amount, converted by molar mass.

As to `[C-]#[N+][C@@H]1[C@H]2c3c[nH]c4cccc(c34)C(C)(C)[C@H]2C[C@@H](Cl)[C@]1(C)C=C` [Compound 1, hapalindole A], the MIC in test [1] was found to be 1.25 µg/mL (≈ 3.69 µM); in test [2], 4 µg/mL (≈ 11.8 µM); in test [3], 2 µg/mL (≈ 5.9 µM); in the test on Candida albicans, 1.25 µg/mL (≈ 3.69 µM); in [4], 16 µg/mL (≈ 47.2 µM); in the test with Escherichia coli TEM it was 4 µg/mL (≈ 11.8 µM). Further, the MIC amounted to 4 µg/mL (≈ 11.8 µM) in test [5]; 8 µg/mL (≈ 23.6 µM) with Shigella sonnei N9; 4 µg/mL (≈ 11.8 µM) in test [6]; 8 µg/mL (≈ 23.6 µM) in the test with Salmonella sp. X514; 4 µg/mL (≈ 11.8 µM) in test [7]; 4 µg/mL (≈ 11.8 µM) in test [8]. Also, the MIC was 0.06 µg/mL (≈ 0.177 µM) in [9]; greater than 64 µg/mL in test [10]; 32 µg/mL (≈ 94.4 µM) in the test on Proteus morganii PR15; 16 µg/mL (≈ 47.2 µM) in test [11]; greater than 64 µg/mL in test [12]; 4 µg/mL (≈ 11.8 µM) in the test with Escherichia coli N10. The MIC in the test on Escherichia coli EC14 is 8 µg/mL (≈ 23.6 µM); in test [13] it was 2 µg/mL (≈ 5.9 µM); in test [14], 2 µg/mL (≈ 5.9 µM); in test [15] it was 16 µg/mL (≈ 47.2 µM); in test [16], 4 µg/mL (≈ 11.8 µM); in [17] it was 4 µg/mL (≈ 11.8 µM).
